Test results reported in patent publication US10919941B2, “Functional lipid constructs” (KODE BIOTECH LIMITED, priority 2007, dated 2021).
No end group written: not given here.

How the values were obtained:
Assay type in all cases: cell-based, human
[1] = test system: sera reactive with modified RBCs; experiment: Neutralisation of reactive sera with free peptide, retested against modified RBCs (BioVue); design: key: 0 or ‘−’ no agglutination; 0 or ‘−’ no agglutination; 1+ or 3=very weak agglutination; 1+ or 3=very weak agglutination; 2+ or 5=weak agglutination; 2+ or 5=weak agglutination; 3+ or 8=moderate strong agglutination; 3+ or 8=moderate strong agglutination; 4+ or 10/12=strong agglutination; 4+ or 10/12=strong agglutination; 4+ or 10/12=strong agglutination; conditions: for Post-neutralisation serology, PAC74 / Post-neutralisation serology, TAP1: cells modified with M22
From the text: Optionally, where F is a peptide, the method includes the preliminary step of: • Adding an amount of the peptide to the sample of the serum; where the amount of the peptide is sufficient to neutralize non-specific agglutination or confirm specificity of the reactive antibody.

[2] = test system: Miltenberger Antibody Positive Panel; experiment: Reactivity of modified RBCs against the Miltenberger Antibody Positive Panel; design: key to score vs panel 15 TAP2 / score vs panel 4 T7202 / score vs panel 8 T5896 / score vs panel 2 T217 / score vs panel 3 T165 / score vs panel 14 TAP1 / score vs panel 10 Mia / score vs panel 11 Mur / score vs panel 12 Gam / score vs panel 6 T6025 / score vs panel 7 T8445 / score vs panel 9 MIII / score vs panel 13 BoxH / reactivity with Panel Serum #7 (T8445) / agglutination score, Panel Serum #7 (T8445): 0 or ‘−’ no agglutination; 0 or ‘−’ no agglutination; 1+ or 3=very weak agglutination; 1+ or 3=very weak agglutination; 2+ or 5=weak agglutination; 2+ or 5=weak agglutination; 3+ or 8=moderate strong agglutination; 3+ or 8=moderate strong agglutination; 4+ or 10/12=strong agglutination; 4+ or 10/12=strong agglutination; 4+ or 10/12=strong agglutination; conditions: for agglutination score, Panel Serum #7 (T8445): cells modified at 50 μg/ml, 2 hour 37° C., BioVue AHG cards; for reactivity with Panel Serum #7 (T8445): construct 50 μg/ml (2 hours, 37° C.)
Experimental: (§1) Red blood cells are modified by mixing 1 part by volume of washed packed red blood cells with 1 part by volume of peptide-lipid construct dispersed at a concentration of 10 to 1000 pg/ml in cell media (Celpresol™).
(§2) The suspensions are either: • 1. incubated for 2 hours at 37° C. before being washed and suspended in a cell medium for serological analysis at a concentration of 0.8 to 3% (Method 1); or • 2. incubated for 3 to 4 hours at room temperature (circa 25° C.) followed by 18 hours at 4° C. before being washed and suspended in a cell medium for serological analysis at a concentration of 0.8 to 3% (Method 2).
(§3) Serological reactions are graded or scored by either of two established systems (0 or ‘−’ no agglutination, 1+ or 3=very weak agglutination, 2+ or 5=weak agglutination, 3+ or 8=moderate strong agglutination, 4+ or 10/12=strong agglutination)
(§4) Serological platforms used are Tube (addition of reagents and reactants into plastic or glass serology tubes and after appropriate incubations, washing and centrifugation observing reactions macroscopically by eye and a 10× magnification eyepiece and scoring) and BioVue™ (addition of reactants into cassettes containing beads (including some reactants) and after appropriate incubations and centrifugation observing the reaction patterns trapped within the Gel matrix). BioVue is the serological column agglutination platform of Ortho-Clinical Diagnostics. Diamed is the serological column agglutination platform of Diamed AG.

[3] = test system: antibody negative serums; experiment: False positive reactions of modified RBCs with antibody negative serums/plasma; design: key to Reaction score BioVue AHG, PAC samples 1-46, 49, 50, 52, 53 / Reaction score BioVue AHG, PAC sample 47 / Reaction score BioVue AHG, PAC sample 48 / Reaction score BioVue AHG, PAC sample 51 / agglutination score, T series serum 2 / agglutination score, T series serum 42 / agglutination score, T series serum 63 / agglutination score, T series serum 62 / agglutination score, T series serum 7 / agglutination score, T series serum 20 / agglutination score, T series serum 48 / agglutination score, T series serum 22 / agglutination score, T series serum 39 / agglutination score, T series serum 23 / agglutination score, T series serum 30 / agglutination score, T series serum 4 / agglutination score, T series serum 31 / agglutination score, T series serum 44 / agglutination score, T series serum 61 / agglutination score, T series serum 18 / agglutination score, T series serum 21 / agglutination score, T series serum 28 / agglutination score, T series serum 55 / agglutination score, false positive serum T18 / agglutination score, false positive serum T21 / agglutination score, false positive serum T28 / agglutination score, false positive serum T55 / agglutination score, false positive serum T78 / agglutination score, false positive serum T92: 0 or ‘−’ no agglutination; 0 or ‘−’ no agglutination; 1+ or 3=very weak agglutination; 1+ or 3=very weak agglutination; 2+ or 5=weak agglutination; 2+ or 5=weak agglutination; 3+ or 8=moderate strong agglutination; 3+ or 8=moderate strong agglutination; 4+ or 10/12=strong agglutination; 4+ or 10/12=strong agglutination; 4+ or 10/12=strong agglutination
[4] = test system: Miltenberger antibody positive sera; experiment: BioVue AHG card column agglutination serology of modified red blood cells; design: key: 0 or ‘−’ no agglutination; 0 or ‘−’ no agglutination; 1+ or 3=very weak agglutination; 1+ or 3=very weak agglutination; 2+ or 5=weak agglutination; 2+ or 5=weak agglutination; 3+ or 8=moderate strong agglutination; 3+ or 8=moderate strong agglutination; 4+ or 10/12=strong agglutination; 4+ or 10/12=strong agglutination; 4+ or 10/12=strong agglutination; conditions: construct 50 μg/ml
Experimental: as §1, §2, §3, §4

[5] = cells modified at 500 μg/ml (Method 1), BioVue cards
[6] = serum neutralised with peptide SSQTNDKHKRDTY (10 μL of 1 mg/ml to 50 μL, 30 minutes 37° C.), BioVue cards
[7] = 40 μl plasma + 10 μl neutraliser 1.0 mg/ml, 30 minutes 37° C.
[8] = 40 μl plasma + 10 μl neutraliser 1.0 mg/ml, 30 minutes 37° C., head: cells modified with the peptide-lipid construct M22 (title: M28)
[9] = cells modified at 50 μg/ml, 2 hour 37° C., BioVue AHG cards
[10] = larger series = 102, cells modified at 50 μg/ml, 2 hour 37° C., BioVue AHG cards
[11] = blood donor plasma, construct 50 μg/ml (2 hours, 37° C.)

## M13: DOPE peptide-lipid construct: MUTK peptide SSQTNDKHKRDTY, leader c (Cys), spacer PEG6 (SSQTNDKHKRDTYC; also: DOPE peptide-lipid construct via leader Cys, spacer PEG6)
[1]; [5]
  agglutination score, serum #3, serum alone: 8
  agglutination score, serum #34, serum alone: 8
  agglutination score, serum #37, serum alone: 8
  agglutination score, serum #42, serum alone: 8
[1]; [6]
  agglutination score, serum #3, serum + peptide: 0
  agglutination score, serum #34, serum + peptide: 0
  agglutination score, serum #37, serum + peptide: 0
  agglutination score, serum #42, serum + peptide: 0
[2]; Table 8, construct 250 μg/ml
  score vs panel 2 T217: 8
  score vs panel 3 T165: 0
  score vs panel 4 T7202: 8
  score vs panel 6 T6025: 8
  score vs panel 7 T8445: 0
  score vs panel 8 T5896: 3
  score vs panel 9 MIII: 0
  score vs panel 10 Mia: 0
  score vs panel 11 Mur: 0
  score vs panel 12 Gam: 0
  score vs panel 13 BoxH: 8

## M22 peptide (SQTNDKHKRDC)
[1]; [7]
  Post-neutralisation serology, PAC74: 8
[1]; [8]
  Post-neutralisation serology, PAC70: 8
  Post-neutralisation serology, TAP2: 3

## M28 peptide (TYPAHTANEC)
[1]; [7]
  Post-neutralisation serology, PAC74: 8
  Post-neutralisation serology, TAP1: 8
[1]; [8]
  Post-neutralisation serology, TAP2: 8

## M30: DOPE peptide-lipid construct: Mur peptide DTYPAHTANE, leader c, spacer CMG(2) (DTYPAHTANEC; also: DOPE peptide-lipid construct via leader Cys, spacer CMG(2))
[3]; T series reactives (n = 58), BioVue AHG cards
  % positive: 9%
[3]; [9]
  agglutination score, T series serum 2: 10
  agglutination score, T series serum 4: 8
  agglutination score, T series serum 7: 0
  agglutination score, T series serum 18: 0
  agglutination score, T series serum 20: 0
  agglutination score, T series serum 21: 0
  agglutination score, T series serum 22: 0
  agglutination score, T series serum 23: 0
  agglutination score, T series serum 28: 0
  agglutination score, T series serum 30: 0
  agglutination score, T series serum 31: 8
  agglutination score, T series serum 39: 0
  agglutination score, T series serum 42: 0
  agglutination score, T series serum 44: 10
  agglutination score, T series serum 48: 0
  agglutination score, T series serum 55: 0
  agglutination score, T series serum 61: 10
  agglutination score, T series serum 62: 0
  agglutination score, T series serum 63: 0
[2]; Table 9, construct 50 μg/ml
  score vs panel 2 T217: 0
  score vs panel 4 T7202: 10
  score vs panel 7 T8445: 8
  score vs panel 8 T5896: 0
  score vs panel 15 TAP2: 8
[2]
  agglutination score, Panel Serum #7 (T8445): 8
  reactivity with Panel Serum #7 (T8445): 8

## M31: DOPE peptide-lipid construct: Mur peptide YPAHTANEVS, leader c, spacer CMG(2) (YPAHTANEVSC; also: DOPE peptide-lipid construct via leader Cys, spacer CMG(2))
[3]; [10]
  agglutination score, false positive serum T21: 10
  agglutination score, false positive serum T28: 12
  agglutination score, false positive serum T78: 8
  agglutination score, false positive serum T92: 12
[2]; Table 9, construct 50 μg/ml
  score vs panel 2 T217: 0
  score vs panel 4 T7202: 10
  score vs panel 7 T8445: 8
  score vs panel 8 T5896: 0
  score vs panel 15 TAP2: 0
[2]
  agglutination score, Panel Serum #7 (T8445): 8
  reactivity with Panel Serum #7 (T8445): 8

## M40: DOPE peptide-lipid construct: Hil peptide EEETGETGQL, leader c, spacer CMG(2) (EEETGETGQLC; also: DOPE peptide-lipid construct via leader Cys, spacer CMG(2))
[3]; [11]
  Reaction score BioVue AHG, PAC sample 47: 0
  Reaction score BioVue AHG, PAC sample 48: 0
  Reaction score BioVue AHG, PAC sample 51: 0
  Reaction score BioVue AHG, PAC samples 1-46, 49, 50, 52, 53: 0
[3]; panel of blood donor plasma samples (PAC), BioVue AHG, construct 50 μg/ml
  % False Positives: 0%
[4]
  BioVue score vs TAP1: 0
  BioVue score vs positive sample 2 T217 (T): 0
  BioVue score vs positive sample 3 T165 (Mur): 0
  BioVue score vs positive sample 4 T7202 (M): 0
  BioVue score vs positive sample 8 T5896 (M + K + Mur): 0

## M41: DOPE peptide-lipid construct: Hil peptide ETGETGQLVH, leader c, spacer CMG(2) (ETGETGQLVHC; also: DOPE peptide-lipid construct via leader Cys, spacer CMG(2))
[4]
  BioVue score vs TAP1: 0
  BioVue score vs positive sample 2 T217 (T): 0
  BioVue score vs positive sample 3 T165 (Mur): 0
  BioVue score vs positive sample 4 T7202 (M): 0
  BioVue score vs positive sample 8 T5896 (M + K + Mur): 0

## VMYASSG?
[1]; [7]
  Post-neutralisation serology, PAC74: 8
  Post-neutralisation serology, TAP1: 8
[1]; [8]
  Post-neutralisation serology, PAC70: 8
  Post-neutralisation serology, PAC71: 5
  Post-neutralisation serology, PAC72: 5
  Post-neutralisation serology, TAP2: 8
